Activity calls are given as the source filed them. No cut-off for these calls is given here.
Legend:
RAW264.7 [1] = test: Cytotoxicity against LPS-induced mouse RAW 264.7 cells assessed as cell viability measured by MTT assay; assay type: cell-based
[2] = biological target: T1, Nitric oxide synthase, inducible (Mus musculus) (UniProt P29477); test: Inhibition of iNOS dimer formation in LPS-induced mouse RAW264.7 cells at 0.5 to 2 uM preincubated for 1 hrs followed by LPS-stimulation and measured after 24 hrs by Westernblot analysis; conditions: dose 0.5-2 µM, time 25.0 hrs
T1 sequence (whole entry): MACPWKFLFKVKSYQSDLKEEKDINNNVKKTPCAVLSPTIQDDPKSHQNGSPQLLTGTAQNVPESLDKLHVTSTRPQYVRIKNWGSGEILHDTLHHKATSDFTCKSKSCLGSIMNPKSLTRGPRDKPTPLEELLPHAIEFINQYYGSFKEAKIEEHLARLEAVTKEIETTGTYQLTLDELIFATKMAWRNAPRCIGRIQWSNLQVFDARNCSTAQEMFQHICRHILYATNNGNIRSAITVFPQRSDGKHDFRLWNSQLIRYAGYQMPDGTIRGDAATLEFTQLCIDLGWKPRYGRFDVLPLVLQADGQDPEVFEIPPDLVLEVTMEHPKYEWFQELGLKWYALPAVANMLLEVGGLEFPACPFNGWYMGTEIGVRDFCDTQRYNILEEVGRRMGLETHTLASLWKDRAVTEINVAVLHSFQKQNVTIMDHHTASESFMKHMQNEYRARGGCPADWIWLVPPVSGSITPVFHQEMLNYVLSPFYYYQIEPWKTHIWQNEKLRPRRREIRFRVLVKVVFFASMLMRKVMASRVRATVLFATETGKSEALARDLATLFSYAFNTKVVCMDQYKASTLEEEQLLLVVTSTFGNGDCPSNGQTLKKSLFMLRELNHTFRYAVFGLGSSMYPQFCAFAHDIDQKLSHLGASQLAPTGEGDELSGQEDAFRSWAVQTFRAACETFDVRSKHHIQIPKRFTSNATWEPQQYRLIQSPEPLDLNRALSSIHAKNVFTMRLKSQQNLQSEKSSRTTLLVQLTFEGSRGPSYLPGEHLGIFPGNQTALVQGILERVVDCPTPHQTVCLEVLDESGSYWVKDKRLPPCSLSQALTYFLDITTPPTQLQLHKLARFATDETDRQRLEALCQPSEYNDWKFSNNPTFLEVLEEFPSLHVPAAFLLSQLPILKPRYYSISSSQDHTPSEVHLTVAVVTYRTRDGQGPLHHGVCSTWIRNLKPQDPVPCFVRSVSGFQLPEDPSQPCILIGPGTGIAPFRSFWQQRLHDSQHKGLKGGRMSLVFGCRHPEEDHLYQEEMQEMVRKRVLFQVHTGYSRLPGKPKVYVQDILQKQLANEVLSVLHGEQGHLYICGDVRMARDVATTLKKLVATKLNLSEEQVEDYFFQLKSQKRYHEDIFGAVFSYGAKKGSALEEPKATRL

Rattus norvegicus = species: Rattus norvegicus; test: Antiinflammatory activity against freund's adjuvant-induced male Sprague-Dawley rat model of arthritis assessed as decrease INOS expression at 40 to 80, IG after 4 weeks measured by staining based immunohistochemical analysis; assay type: functional, organism-based; conditions: dose 40-80 mg/kg
[3] = Metabolic stability in rat hepatocytes assessed as parent compound remaining after 120 mins by LC-MS/MS analysis; assay type: ADME, cell-based, Hepatocyte; conditions: read-out: Stabilty
Cytochrome P450 2C9 = Cytochrome P450 2C9 (Homo sapiens, UniProt P11712); test: Inhibition of CYP2C9 in human liver microsomes using Diclofenac as substrate measured after 20 mins by LC-MS/MS analysis; assay type: ADME
Sequence of Cytochrome P450 2C9 (P11712 whole entry): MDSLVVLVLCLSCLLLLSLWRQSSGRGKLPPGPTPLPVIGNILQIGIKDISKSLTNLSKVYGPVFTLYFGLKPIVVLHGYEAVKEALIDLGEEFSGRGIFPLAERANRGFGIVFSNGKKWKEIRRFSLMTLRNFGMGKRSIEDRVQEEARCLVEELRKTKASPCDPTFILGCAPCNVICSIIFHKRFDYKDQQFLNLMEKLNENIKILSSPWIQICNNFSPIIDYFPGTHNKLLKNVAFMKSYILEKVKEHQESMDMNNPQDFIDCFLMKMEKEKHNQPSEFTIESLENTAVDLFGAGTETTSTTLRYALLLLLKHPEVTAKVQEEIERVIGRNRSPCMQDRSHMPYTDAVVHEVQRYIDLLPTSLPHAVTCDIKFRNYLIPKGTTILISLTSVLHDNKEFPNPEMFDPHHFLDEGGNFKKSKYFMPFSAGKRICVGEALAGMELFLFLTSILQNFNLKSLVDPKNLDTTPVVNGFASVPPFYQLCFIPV

Cytochrome P450 2C19 = Cytochrome P450 2C19 (Homo sapiens, UniProt P33261); test: Inhibition of CYP2C19 in human liver microsomes using Mephenytoin as substrate measured after 20 mins by LC-MS/MS analysis; assay type: ADME
Sequence of Cytochrome P450 2C19 (P33261 whole entry): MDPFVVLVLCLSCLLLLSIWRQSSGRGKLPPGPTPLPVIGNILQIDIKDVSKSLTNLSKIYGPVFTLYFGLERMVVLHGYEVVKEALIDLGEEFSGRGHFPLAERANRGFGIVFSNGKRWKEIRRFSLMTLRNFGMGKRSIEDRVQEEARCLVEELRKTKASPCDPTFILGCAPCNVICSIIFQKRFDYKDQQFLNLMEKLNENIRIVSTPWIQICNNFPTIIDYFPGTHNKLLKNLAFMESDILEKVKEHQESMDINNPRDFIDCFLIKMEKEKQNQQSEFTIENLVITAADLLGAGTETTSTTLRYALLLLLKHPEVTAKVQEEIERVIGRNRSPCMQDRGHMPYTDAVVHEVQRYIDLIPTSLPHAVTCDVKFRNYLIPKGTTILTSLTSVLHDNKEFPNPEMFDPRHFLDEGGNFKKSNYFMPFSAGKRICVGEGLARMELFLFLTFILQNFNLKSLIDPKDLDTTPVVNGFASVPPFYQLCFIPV

[4] = Cmax in Sprague-Dawley rat at 1 mg/kg, iv measured after 0.08 to 24 hrs by LC-MS/MS analysis; assay type: ADME, organism-based; parameters: route intravenous, time upper 24 hrs, dose 1 mg/kg, time lower 0.08 hrs; conditions: in vivo
[5] = Cmax in Sprague-Dawley rat at 10 mg/kg, po measured after 0.25 to 24 hrs by LC-MS/MS analysis; assay type: ADME, organism-based; parameters: route oral, time lower 0.25 hrs, dose 10 mg/kg, time upper 24 hrs; conditions: in vivo
[6] = Acute toxicity in IG dosed rat assessed as maximum tolerated dose; assay type: organism-based; conditions: in vivo, po
[7] = Subacute toxicity in rat assessed as change in body weight at 100 to 500 mg/kg, IG administered every other day for 14 days and measured every 2 days; assay type: organism-based; conditions: in vivo, po, 336 h, dose 100-500 mg/kg, time 14 day
RAW264.7 [8] = test: Cytotoxicity against mouse RAW264.7 cells at 20 uM measured after 24 hrs; assay type: cell-based; conditions: raw264.7, 24 h
[9] = Acute toxicity in rat assessed as fur wrinkles at 2000 mg/kg, IG administered as single dose; assay type: organism-based; conditions: in vivo, po
[10] = Subacute toxicity in rat assessed as heart damage at 100 to 500 mg/kg, IG administered every other day for 14 days and measured every 2 days by H and E staining; assay type: organism-based; conditions: in vivo, po, 336 h, dose 100-500 mg/kg, time 14 day
[11] = Subacute toxicity in rat assessed as drowsiness at 100 to 500 mg/kg, IG administered every other day for 14 days and measured every 2 days; assay type: organism-based; conditions: in vivo, po, 336 h, dose 100-500 mg/kg, time 14 day

COc1cc(/C=C/c2nc(NCc3ccc(C)cc3)c3sccc3n2)cc(OC)c1OC
IC50 (RAW264.7 [1]): > 50 µM
inhibition [2]: Active
Activity (Rattus norvegicus): Active
remaining at 2 h [3]: 22.2%
IC50 (Cytochrome P450 2C9): 8.91 µM
IC50 (Cytochrome P450 2C19): 7.76 µM
Cmax [4]: 388 ng/mL
Cmax [5]: 131 ng/mL
MTD [6]: 2000 mg/kg
Activity [7]: Toxic
Activity (RAW264.7 [8]): Non-Toxic
Activity [9]: Non-Toxic
Activity [10]: Non-Toxic
Activity [11]: Non-Toxic

Source: ChEMBL document CHEMBL4813945, “Discovery and development of novel pyrimidine and pyrazolo/thieno-fused pyrimidine derivatives as potent and orally active inducible nitric oxide synthase dimerization inhibitor with efficacy for arthritis” (Eur J Med Chem, 2021)
